The record followed here is article PMC6987128, “Target protein-oriented isolation of Hes1 dimer inhibitors using protein based methods” (Scientific Reports, 2020).

Broadly, the IC50 is the concentration needed to halve the response being measured.

Experiment [1] has as its target T1, Hes1 dimer formation (Hes1-Hes1 interaction) (Rattus norvegicus, UniProt Q04666).
T1 construct: Glutathione-S-transferase (GST) fused rat Hes1(3–281) protein was expressed in Escherichia coli; GST (N, cleaved yes); GST (N); made in house; host or cells: Escherichia coli JM109 (pGEX-ratHes1 3-281)
T1 sequence (Q04666 3-281): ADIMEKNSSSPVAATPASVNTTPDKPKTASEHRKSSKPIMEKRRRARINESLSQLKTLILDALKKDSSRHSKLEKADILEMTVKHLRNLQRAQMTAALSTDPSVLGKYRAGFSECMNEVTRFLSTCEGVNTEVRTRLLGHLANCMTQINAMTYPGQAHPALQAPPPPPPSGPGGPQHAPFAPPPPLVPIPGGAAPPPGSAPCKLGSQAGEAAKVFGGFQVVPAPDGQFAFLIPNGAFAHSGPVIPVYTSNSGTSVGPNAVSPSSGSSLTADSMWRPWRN
As to the kind of experiment: Hes1-Hes1 interaction fluorescent plate assay (Hes1 dimer formation inhibition). The class given is binding. Particulars: for remaining activity at 5 µM: 5 μM compound; for remaining activity at 100 µM: 100 μM compound. An excerpt: It is essential to inhibit undesired PPIs in drug development, and bioactivity-guided isolation using the inhibitory activity of PPIs is an attractive method to obtain effective inhibitors. However, currently there are only a few examples of such approaches using PPI assay systems[22],[23]. We previously developed a Hes1-Hes1 interaction fluorescent plate assay and reported the screening results of our natural products compound library (Fig. 2A)[24]. Glutathione-S-transferase (GST) fused rat Hes1(3–281) protein was expressed in Escherichia coli and purified rat Hes1 protein was immobilized on the bottom of 96 well plates. We prevented GST-GST interactions, which would result in false positives, by preparing GST-free Hes1 protein by GST cleavage with Turbo3C protease. After labeling Hes1 with Cy3, this florescent Hes1 protein was added to the wells of the above plate and incubated for 24 h at 4 °C. Hes1-Hes1 interaction was successfully detected as Cy3 fluorescence intensity. Using this assay system, we screened our 118 plant extract library and identified the MeOH extract of Psidium guajava leaves to contain naturally occurring compounds that inhibit Hes1 dimer formation. The MeOH extract (29.9 g) was fractionated using Diaion HP-20 with a MeOH-acetone solvent system to afford fractions 1A to 1C. Active fraction 1A (27.2 g) was suspended in 10% aq. MeOH and partitioned with hexane, EtOAc and BuOH to obtain hexane (1.1 g), EtOAc (5.7 g), BuOH (4.7 g) and aqueous (18.9 g) soluble fractions. Part of the active BuOH soluble fraction was subjected to ODS column chromatography and reverse-phase HPLC. Activity-guided separation yielded ten compounds (1–10; Fig. 3). The isolated compounds were identified as morin (1)[25], isoquercitrin (2)[26], methyl gallate (3)[27], (+)-catechin (4)[28],[29], dihydrophaseic acid (5)[30], quercetin (6)[26],[31], avicularin (7)[32],[33], gallic acid (8)[34], protocatechuic acid (9)[35] and 4-hydroxybenzoic acid (10)[36] based on comparisons of their spectral data with spectra in the literature.
Hes1-bound microplate wells[24] (Nunc Immobilizer^TM Amino Plate, Thermo) were incubated with 50 μL of Cy3-labeled-Hes1 in NET-N buffer (NET buffer (20 mM Tris-HCl, pH 7.5, 200 mM NaCl, 1 mM EDTA) containing 0.05% Nonidet® P-40, ca. 7 mg/L, dye/protein = 0.4) for 24 h at 4 °C. After removing the protein solution, the wells were washed twice with 200 μL of PBST, then each compound solution (in NET-N buffer, 50 μL) was added and the plates were incubated for 1 h at RT in the dark. The wells were washed twice with 200 μL of PBST, then dried under reduced pressure for 1 h in the dark. The Cy3 dye was excited at 544 nm and emission was monitored at 590 nm using a microplate reader (Fluoroskan Ascent, Thermo Labsystems, Vantaa, Finland). The assays were typically carried out in three individual wells, and the mean value and SD were calculated. The equilibrium between dimer formation between Cy3-Hes1/Cy3-Hes1 (in solution) and Cy3-Hes1/immobilized-Hes1 allowed the detection of Cy3-Hes1/immobilized-Hes1.
Typical procedure; Nunc Immobilizer^TM Amino 96 well Plate, white (Nalge Nunc Int., NY, USA) was used for immobilizing of Hes1. The micro plate wells were incubated with 100 µl of Hes1 (10 µg/mL in PBS) 2 h at 4 °C. After removing protein solution, the wells were incubated for 2 h at 4 °C with 100 µL of 10 mM ethanolamine (in 100 mM Na2CO3 buffer, pH 9.6) to block remaining activated units on the well. Then, wells were washed twice with 200 µL of PBST (PBS containing 0.05% Tween 20).
The Cy3 dye reagent was prepared as 1 vial of Cy3 monofunctional dye reagent (succinimidylester type; GE Healthcare, Buckinghamshire, UK) in DMSO (50 µL) and stored at -20 °C. Cy3-labeled Hes1 was prepared by mixing of protein in PBS with Cy3 dye reagent in DMSO (typically 0.6 µL of DMSO solution to 1 mL of 10 mg/L protein solution in PBS) for 30 min at 4 °C in the dark. […]

Experiment [2] deals with C17.2 mouse neural stem cells. The experiment can be described thus: Neural stem cell differentiation assay (Tuj1/GFAP immunofluorescence staining). The class given is cell-based. Conditions: C17.2 cells, 5 μM, 6 days, positive control. An excerpt:
We recently developed another protein-based screening method, the target protein oriented natural products isolation method (TPO-NAPI) using protein beads (Fig. 2B). Agalloside, inohanamine, α-mangostine, BE-14106, isomicromonolactam, staurosporin and linarin were isolated as Hes1 binding compounds using the TPO-NAPI method[15],[17]. Rat Hes1 (1–95) containing basic and helix-loop-helix domains was immobilized because the helix-loop-helix domain is known to be important for Hes1-Hes1 interaction; therefore, utilizing this domain in the beads method would likely be effective for screening Hes1 dimer inhibitors. GST-Hes1 immobilized beads were prepared by mixing freshly prepared GST-Hes1 protein with glutathione Sepharose 4B beads. GST-only beads were prepared as a control. After incubating the beads with plant MeOH extracts at 4 °C for 2 h, bound compounds were eluted by adding EtOH and heating at 100 °C for 3 min, then the eluted compounds were analyzed by HPLC. […] The MeOH extract (64.6 g) of Terminalia chebula bark was partitioned with hexane, EtOAc and BuOH to obtain hexane (1.5 g), EtOAc (3.6 g), BuOH (42.6 g), and aqueous (20.5 g) soluble fractions. The EtOAc fraction contained the target peak and was subjected to silica gel column chromatography to give eight fractions (1A-H). Fraction 1D contained the target peak and was separated by ODS column chromatography and reverse-phase HPLC to give compound 11 (0.4 mg). Compound 11 was identified as 4-O-(4″-O-galloyl-α-L-rhamnopyranosyl)ellagic acid by comparison of its NMR data with reported spectral data[37]. […] This is the strongest Hes1 dimer inhibitor reported to date. The ability of 11 to accelerate the differentiation of C17.2 mouse neural stem cells was evaluated (Fig. 5). C17.2 cells (2 × 10^5 cells/mL) were seeded in a poly-L-lysine-coated 24 well plates and incubated for 24 h, then the cells were treated with DMSO (control), 100 μM valproic acid (VPA), 5 μM retinoic acid (RA) (positive controls) or 11 (1 or 5 μM) for 6 days. A confocal microscope was used to obtain images of differentiated neural cells after immunostaining class III β-tubulin (Tuj1) in neurons, and glial fibrillary acidic protein (GFAP) in astrocytes and nuclei (TO-PRO-3). […] In contrast, the control dish containing cells treated with DMSO contained small number of neurons.
C17.2 cells were cultured in proliferation medium [DMEM (DS Pharma Biomedical Co., Ltd. Osaka, Japan) supplemented with 10% fetal bovine serum (Biowest, Nuaillé, France), 5% horse serum (Gibco, Life Technologies, Tokyo, Japan)]. Neural differentiation of C17.2 cells was initiated by transferring the cells to differentiation medium [Neurobasal Medium (Gibco) supplemented with 2% B-27 without vitamin A (Gibco), 1% antibiotic-antimycotic (Gibco)]. All cultures were maintained in a humidified incubator at 37 °C in 5% CO2/95% air.
C17.2 cells were dissociated using the proliferation medium 2 × 10^5 cells/mL on cover glass (MATSUNAMI GLASS) coated with poly-L-lysine and fibronectin/laminin. After incubation for 24 h, cells were washed with D-MEM and treated with individual compounds in differentiation medium for 6 days.
C17.2 cells were fixed with 4% paraformaldehyde in PBS for 20 min at room temperature (r.t.) and washed with 1% BSA in PBS three times. After blocking with 10% BSA in 0.3% Triton X-100 in PBS for 45 min at r.t., fixed cells were incubated with primary antibodies (anti-βIII-Tubulin; Neuronal Class III, Mouse-Mono, 1:400, R&D Systems^TM; anti-GFAP, 1:400, VERITAS) for 12 h at 4 °C. After washing three times with 1% BSA in PBS (500 μL/well), cells were incubated with secondary antibodies (Alexa Fluor® 488 goat anti-mouse IgG (H + L), 1:400, Life Technologies; Alexa Fluor® 555 goat ant-rabbit IgG (H + L), 1:200, Life Technologies) for 1 hr at r.t. in the dark. […]

[3] abbreviates: Hes1 dimer formation inhibitory activity IC50, Cy3-labeled Hes1 / immobilized Hes1, compound 1 h at RT.
Setting [4] is: 24 h, 0 μM = 100, read-out: Hes1 dimer formation rate (%).
Setting [5] is: 24 h, 25 μM compound, 0 μM = 100, read-out: Hes1 dimer formation rate (%).
The mark [6] stands for this setting: 24 h, 50 μM compound, 0 μM = 100, read-out: Hes1 dimer formation rate (%).
[7] abbreviates: Cy3-labeled Hes1 / immobilized Hes1, compound 1 h at RT, read-out: Hes1 dimer formation inhibitory activity IC50.
[8] abbreviates: 24 h, 10 μM compound, 0 μM = 100, read-out: Hes1 dimer formation rate (%).
Where [9] appears, read: 24 h, read-out: Hes1 dimer formation rate (%).

Where two headings read alike, the source gives them in different places.

In turn, `O=C(O)c1cc(O)c(O)c(O)c1` [Commercially available gallic acid, gallic acid, reference compound] displayed an IC50 in experiment [1] (setting [3]) of 8.9 µM.
With `O=c1c(O)c(-c2ccc(O)cc2O)oc2cc(O)cc(O)c12` [Compound 1, morin], the remaining activity at 5 µM in experiment [1] (setting [4]) came to 89.7%. In experiment [1] (setting [5]), the remaining activity at 25 µM came out at 79.2%. In addition, the remaining activity at 50 µM in experiment [1] (setting [6]) amounted to 37.8%. Moreover, the IC50 in experiment [1] (setting [7]) came to 40.8 µM.
On to `O=c1c(O[C@@H]2O[C@H](CO)[C@@H](O)[C@H](O)[C@H]2O)c(-c2ccc(O)c(O)c2)oc2cc(O)cc(O)c12` [Compound 2, isoquercitrin], for which the remaining activity at 20 µM in experiment [1] (24 h, 20 μM compound, 0 μM = 100, read-out: Hes1 dimer formation rate (%)) is 67.2%. In addition, in experiment [1] (24 h, 60 μM compound, 0 μM = 100, read-out: Hes1 dimer formation rate (%)), the remaining activity at 60 µM was determined as 34.5%. Moreover, the remaining activity at 80 µM in experiment [1] (24 h, 80 μM compound, 0 μM = 100, read-out: Hes1 dimer formation rate (%)) was 28.3%. Moreover, the IC50 in experiment [1] (setting [7]) came out at 35.7 µM.
In the case of `COC(=O)c1cc(O)c(O)c(O)c1` [Compound 3, methyl gallate], the remaining activity at 5 µM in experiment [1] (setting [4]) stood at 68.4%. In experiment [1] (setting [8]), the remaining activity at 10 µM was 54.3%. The remaining activity at 25 µM in experiment [1] (setting [5]) was 39.2%. In addition, the IC50 in experiment [1] (setting [7]) stood at 12.7 µM.
Regarding `Oc1cc(O)c2c(c1)O[C@H](c1ccc(O)c(O)c1)[C@@H](O)C2` [Compound 4, (+)-catechin], the remaining activity at 25 µM in experiment [1] (setting [5]) was determined as 95.4%. Besides, in experiment [1] (setting [6]), the remaining activity at 50 µM was found to be 79.2%. In addition, in experiment [1] (setting [4]), the remaining activity at 100 µM amounted to 78.8%.
Taken in the same sequence, the figures for `CC(C=CC1(O)C2(C)COC1(C)CC(O)C2)=CC(=O)O` (stereo not shown) [Compound 5, dihydrophaseic acid] were 125%, 122% and 127%.
Take `O=c1c(O)c(-c2ccc(O)c(O)c2)oc2cc(O)cc(O)c12` [Compound 6, quercetin]: in experiment [1] (24 h, 30 μM compound, 0 μM = 100, read-out: Hes1 dimer formation rate (%)), the remaining activity at 30 µM came to 82.5%. Further, the remaining activity at 40 µM in experiment [1] (24 h, 40 μM compound, 0 μM = 100, read-out: Hes1 dimer formation rate (%)) worked out at 66.5%. Besides, the remaining activity at 50 µM in experiment [1] (setting [6]) came to 35.7%. The IC50 in experiment [1] (setting [7]) was 45.1 µM.
Turning to `O=c1c(O[C@@H]2O[C@@H](CO)[C@H](O)[C@H]2O)c(-c2ccc(O)c(O)c2)oc2cc(O)cc(O)c12` [Compound 7, avicularin], the remaining activity at 5 µM in experiment [1] (setting [4]) is 74.6%. Besides, the remaining activity at 25 µM in experiment [1] (setting [5]) amounted to 51.3%. In addition, the remaining activity at 50 µM in experiment [1] (setting [6]) is 23.8%. Besides, the IC50 in experiment [1] (setting [7]) was 26.5 µM.
With `O=C(O)c1cc(O)c(O)c(O)c1` [Compound 8, gallic acid], in experiment [1] (setting [4]), the remaining activity at 5 µM came out at 53.9%. The remaining activity at 10 µM in experiment [1] (setting [8]) is 50.7%. In addition, in experiment [1] (setting [5]), the remaining activity at 25 µM was found to be 26.2%. The compound also returned an IC50 in experiment [1] (setting [3]) of 10.3 µM.
`O=C(O)c1ccc(O)c(O)c1` [Compound 9, protocatechuic acid]: in experiment [1] (setting [9]), the remaining activity at 10 µM is 61.7%, the remaining activity at 25 µM was found to be 49.3% and the remaining activity at 50 µM was determined as 44.9%. The IC50 in experiment [1] (setting [7]) was 23.8 µM.
Consider `O=C(O)c1ccc(O)cc1` [Compound 10, 4-hydroxybenzoic acid], for which, in experiment [1] (setting [5]), the remaining activity at 25 µM is 58.8%. For the same compound, in experiment [1] (setting [6]), the remaining activity at 50 µM worked out at 50.4%. Further, in experiment [1] (setting [4]), the remaining activity at 100 µM came out at 39.8%. Moreover, in experiment [1] (setting [7]), the IC50 came out at 51.2 µM.
As to `CC1=C(/C=C/C(C)=C/C=C/C(C)=C/C(=O)O)C(C)(C)CCC1` [RA, retinoic acid, reference compound], in experiment [2], the number of neurons entry is on record as “increased”.
